In patent US6407306B1, “Process for extracting carotenes from carotene-containing materials” (priority 2000, dated 2002):

Experiments:
[1] = cited from earlier work; for solubility relative to β-carotene: qualitative comparison
[2] = Solubility of extractant in dense carbon dioxide; format: physicochemical; conditions: 70° C. and 120 bar

For `CC(C)=CCC/C(C)=C/C=C/C(C)=C/C=C/C(C)=C/C=C/C=C(C)/C=C/C=C(C)/C=C/C1=C(C)CCCC1(C)C` [γ-Carotene], the “solubility relative to β-carotene” value [1] is given as “more readily soluble than β-carotene”.
In the case of `CC1=C(/C=C/C(C)=C/C=C/C(C)=C/C=C/C=C(C)/C=C/C=C(C)/C=C/C2=C(C)CCCC2(C)C)C(C)(C)CCC1` [β-Carotene], the solubility in benzene ([1]; benzene, 19° C.) is listed as 0.35 grams per 100 cm^3 of solvent, the “solubility in carbon disulfide” value ([1]; carbon disulfide, 19° C.) is listed as 5.5 grams per 100 cm^3 of solvent and the solubility in ethanol ([1]; ethanol, 19° C.) is listed as 0.008 grams per 100 cm^3 of solvent. For the same compound, the “solubility in petroleum ether” value ([1]; petroleum ether, 19° C.) was 0.1 grams per 100 cm^3 of solvent.
In the case of `CC1=CCCC(C)(C)C1/C=C/C(C)=C/C=C/C(C)=C/C=C/C=C(C)/C=C/C=C(C)/C=C/C1=C(C)CCCC1(C)C` (stereo not drawn) [α-Carotene], the “solubility relative to β-carotene” value [1] is listed as “more readily soluble than β-carotene”.
In the case of `O=CN1CCOCC1` [4-formylmorpholine], the “solubility in carbon dioxide” value [2] is reported as 9 wt. %.
